In article PMC7438908, “Antimicrobial Peptide Reverses ABCB1-Mediated Chemotherapeutic Drug Resistance” (Frontiers in Pharmacology, 2020):
“Also recorded” adds a separate entry of the source. Like-named read-outs stand apart in the source and are kept apart here. Where no end group is shown, it is not given here.

Assays:
KB-3-1 cells [1] = assay: MTT reversal assay, parental KB-3-1; assay type: cell-based, human; conditions: no modulator, mean ± SD of at least three independent experiments in triplicate, read-out: IC50 of anticancer drug alone
Method: (§1) Therefore, we used KB-C2 and its parental cell line KB-3-1 in this study. […] All the cell lines were cultured in DMEM containing 1% penicillin/streptomycin and 10% FBS at 37°C with 5% CO2. All drug-resistant cell lines were cultured in drug-free medium for more than 2 weeks prior to their use.
(§2) Briefly, 5×10^3 cells per well were evenly seeded in 96-well microplates overnight. For the cytotoxicity assay, peptides and positive control of known substrate anticancer drugs were added in a designated concentration gradient. For the reversal assay, peptides and positive control agents were added 2 h before the addition of anticancer drugs within the specified concentration gradient. The plates were incubated in a culture condition for 68 h followed by the addition of 20 μL MTT solution (4 mg/mL) and further incubation of 4 h. After aspirating the culture medium and MTT solution, the formazan crystals were dissolved with 100 μL DMSO. The absorbance was determined at 570 nm with the accuSkan GO UV/Vis Microplate Spectrophotometer (Fisher Sci., Fair Lawn, NJ).

HEK293/pcDNA3.1 cells = assay: MTT reversal assay, HEK293/pcDNA3.1; assay type: cell-based; conditions: no modulator, mean ± SD of at least three independent experiments in triplicate, read-out: IC50 of anticancer drug alone
Method: as §1, §2

HEK293/ABCB1 cells = assay: MTT reversal assay, transfected HEK293/ABCB1; assay type: cell-based; conditions: HEK293/ABCB1, read-out: IC50 of anticancer drug alone
ABCB1 in KB-C2 cells [2] = assay: [3H]-paclitaxel efflux, KB-C2; assay type: cell-based, human; conditions: without inhibitor treatment, 2 h
Method: (§3) Drug accumulation and efflux assays were performed as previously described ([Fan et al., 2018]). For the drug accumulation assay, KB-C2 and KB-3-1 cells were seeded at 1×10^4 cells per well into 24-well plates and incubated at 37°C overnight. After cells were incubated in the presence or absence of peptide HX-12C and positive reversal agent for 72 h, the medium was replaced by medium containing 5 μM [^3H]-paclitaxel with peptide HX-12C or positive reversal agent. The drug medium was discarded after 2 h incubation, then cells were washed three times with ice-cold PBS and transferred to the scintillation fluid. The drug efflux assay was performed after discarding the drug medium, then cells were washed three times with ice-cold PBS and treated with the medium containing peptide HX-12C or positive reversal agent. There were three different time points (30, 60, and 120 min) at which after changing the medium, the cells were washed three times with ice-cold PBS and collected and transferred to the scintillation fluid. The Packard TRI-CARB1 190`A liquid scintillation analyzer was used to measure radioactivity. A parallel well of cells for each group was set up for cell number counting at the end of assay for the purpose of data normalization.

ABCB1 in KB-C2 cells [3] = assay: [3H]-paclitaxel accumulation, KB-C2; assay type: cell-based, human; conditions: KB-C2 vs KB-3-1; after 2 hours of incubation; no inhibitor
Method: as §3

[4] = system: KB-C2 cells (ABCB1-overexpressing); assay: MTT reversal assay, drug-selected ABCB1-overexpressing KB-C2; assay type: cell-based, human
Method: as §1, §2

KB-3-1 cells [5] = assay: MTT cytotoxicity of peptides, parental KB-3-1; assay type: cell-based, human; conditions: KB-3-1 parental; modified MTT, 68 h + 4 h MTT, 570 nm; three independent experiments
Method: as §1, §2

ABCB1 = target: T1, ABCB1 (Homo sapiens, UniProt P08183); assay: ABCB1 ATPase assay (vanadate-sensitive); assay type: biochemical; conditions: insect cell membrane vesicles
T1 construct: purchased BD Biosciences, San Jose, CA, USA; host or cells: High Five insect cells (membrane vesicles)
T1 sequence (P08183 whole entry): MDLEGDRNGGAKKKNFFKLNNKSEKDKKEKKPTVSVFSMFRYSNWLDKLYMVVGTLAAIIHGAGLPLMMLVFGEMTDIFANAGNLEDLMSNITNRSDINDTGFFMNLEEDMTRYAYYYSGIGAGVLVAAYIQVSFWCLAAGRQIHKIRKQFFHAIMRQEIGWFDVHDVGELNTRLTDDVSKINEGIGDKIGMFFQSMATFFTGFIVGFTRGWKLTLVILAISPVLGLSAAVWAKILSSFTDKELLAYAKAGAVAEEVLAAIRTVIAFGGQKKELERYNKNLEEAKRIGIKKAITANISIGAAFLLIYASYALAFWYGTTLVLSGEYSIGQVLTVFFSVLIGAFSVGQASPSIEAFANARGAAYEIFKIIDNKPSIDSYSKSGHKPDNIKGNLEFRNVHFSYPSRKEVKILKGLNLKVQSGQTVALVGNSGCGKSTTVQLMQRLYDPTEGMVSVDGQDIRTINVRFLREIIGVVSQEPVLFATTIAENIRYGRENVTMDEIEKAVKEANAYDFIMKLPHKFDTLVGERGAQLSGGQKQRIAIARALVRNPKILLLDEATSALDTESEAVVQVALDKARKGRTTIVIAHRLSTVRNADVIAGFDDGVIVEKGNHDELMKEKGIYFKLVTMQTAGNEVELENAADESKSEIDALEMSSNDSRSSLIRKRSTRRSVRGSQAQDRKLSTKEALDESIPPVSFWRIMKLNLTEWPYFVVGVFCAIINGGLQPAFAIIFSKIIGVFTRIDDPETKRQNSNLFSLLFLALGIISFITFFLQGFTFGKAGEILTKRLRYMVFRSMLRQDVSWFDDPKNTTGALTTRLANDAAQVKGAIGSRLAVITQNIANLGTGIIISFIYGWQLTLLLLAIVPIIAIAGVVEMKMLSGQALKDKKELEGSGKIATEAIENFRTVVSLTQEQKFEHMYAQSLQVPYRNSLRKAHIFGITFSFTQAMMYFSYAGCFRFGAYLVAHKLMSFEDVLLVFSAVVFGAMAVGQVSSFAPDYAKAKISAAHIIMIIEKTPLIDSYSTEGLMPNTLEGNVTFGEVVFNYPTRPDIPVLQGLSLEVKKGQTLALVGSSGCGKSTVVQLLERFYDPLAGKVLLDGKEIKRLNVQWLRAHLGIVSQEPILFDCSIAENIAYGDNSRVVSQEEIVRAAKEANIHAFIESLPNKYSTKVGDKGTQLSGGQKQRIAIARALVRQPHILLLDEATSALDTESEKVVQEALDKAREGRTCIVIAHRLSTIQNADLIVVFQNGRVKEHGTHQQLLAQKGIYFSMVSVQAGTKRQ
Method: The ABCB1 ATPase activity was measured based on vanadate-sensitive principle as previously described ([Zhang et al., 2016]). The High Five insect cells membrane vesicles (BD Biosciences, San Jose, CA, USA) were first incubated for 5 min in ATPase assay buffer at 37°C with or without 0.3 mM vanadate. Then peptide HX-12C at a concentration of 0 to 40 μM was adding to the assay buffer and incubated at 37°C for 3 min. After adding 5 mM Mg-ATP with a total volume of 0.1 mL, the ATPase reaction was initiated until stopped by adding 100 μL 5% SDS solution after incubation at 37°C for 20 min. The amount of inorganic phosphate (IP) was used to calculate the ATPase activity of ABCB1, detected at 800 nm using a spectrophotometer.

CC(=O)O[C@H]1C(=O)[C@@]2(C)[C@H]([C@H](OC(=O)c3ccccc3)[C@]3(O)C[C@H](OC(=O)[C@H](O)[C@@H](NC(=O)c4ccccc4)c4ccccc4)C(C)=C1C3(C)C)[C@]1(OC(C)=O)CO[C@@H]1C[C@@H]2O [Paclitaxel, paclitaxel]
IC50 (KB-3-1 cells [1]; Homo sapiens): 2 ± 0.7 nM
IC50 (HEK293/pcDNA3.1 cells; Homo sapiens): 1450 ± 121 nM
IC50 (HEK293/ABCB1 cells): 30.9 ± 4.67 µM

N.N.[Cl][Pt][Cl] [Cisplatin, cisplatin]
IC50 (KB-3-1 cells [1]): 1790 ± 476 nM
IC50 (HEK293/pcDNA3.1 cells): 2210 ± 541 nM

CC(=O)O[C@H]1C(=O)[C@@]2(C)[C@H]([C@H](OC(=O)c3ccccc3)[C@]3(O)C[C@H](OC(=O)[C@H](O)[C@@H](NC(=O)c4ccccc4)c4ccccc4)C(C)=C1C3(C)C)[C@]1(OC(C)=O)CO[C@@H]1C[C@@H]2O [[^3H]-paclitaxel]
decrease of intracellular [3H]-paclitaxel (efflux) (ABCB1 in KB-C2 cells [2]): about 50%
level of [3H]-paclitaxel in KB-C2 lower than in KB-3-1 (ABCB1 in KB-C2 cells [3]): approximately 100 fold

COc1cccc2c1C(=O)c1c(O)c3c(c(O)c1C2=O)C[C@@](O)(C(=O)CO)C[C@@H]3O[C@H]1C[C@H](N)[C@H](O)[C@H](C)O1 [Doxorubicin, doxorubicin]
IC50 (KB-3-1 cells [1]; Homo sapiens): 1190 ± 279 nM
IC50 (HEK293/ABCB1 cells): 31.2 ± 5.41 µM
IC50 in ABCB1-overexpressing cells compared with parental cells [4]: significantly higher than those of their parental cells
IC50 ([4]; Homo sapiens, KB-C2, read-out: IC50 of anticancer drug alone): 69.8 ± 4.64 µM

FFRKVLKLIRKIWR [HX-12C]
IC50 (KB-3-1 cells [5]): 7.53 µM
effect on ATPase activity of ABCB1 (ABCB1; 0 to 40 μM): stimulated ABCB1 ATPase activity; also recorded: can stimulate the ATPase activity of ABCB1 in a concentration-dependent manner
maximal stimulation of ABCB1 ATPase activity (ABCB1; peptide 0 to 40 μM, 37°C, 20 min, vanadate-sensitive, three independent experiments): 4.7 fold of the basic activity
